Data from EPA's aquatic toxicity sets.

Tested on: Daphnia magna
Test: 48 h LC50 (-log10 mol/L); higher = more toxic

| Structure (SMILES) | 48 h LC50 (-log10 mol/L) |
| --- | --- |
| CCCCCCCCCCC[C@@H](C[C@@H]1OC(=O)[C@H]1CCCCCC)OC(=O)[C@H](CC(C)C)NC=O | 4.85 |
| CN1CCCC1=O | 4.91 |
| CCCCNC(=O)OCC#CI | 6.85 |
| O=[N+]([O-])c1ccc(Cl)c([N+](=O)[O-])c1 | 5.4 |
| CCC(CC)Nc1c([N+](=O)[O-])cc(C)c(C)c1[N+](=O)[O-] | 3.73 |
| Oc1cc(Cl)ccc1Oc1ccc(Cl)cc1Cl | 6.11 |
| O=S1(=O)OCC2C(CO1)C1(Cl)C(Cl)=C(Cl)C2(Cl)C1(Cl)Cl (centres undefined) | 5.3 |
| CC(C)CCCCCCCOP(=O)(Oc1ccccc1)Oc1ccccc1 | 7.1 |
| Nc1cc(Cl)c(Cl)cc1Cl | 4.76 |
| Clc1cc(Cl)c(Cl)c(Cl)c1 | 4.87 |
| COC(=O)c1ccccc1C(=O)OC | 3.77 |
| CNC(=S)N(C)C | 2.19 |
| Clc1cc(Cl)c(-c2cc(Cl)c(Cl)cc2Cl)cc1Cl | 8.44 |
| CSc1nc(NC2CC2)nc(NC(C)(C)C)n1 | 4.49 |
| c1ccc2cc3c(ccc4ccccc43)cc2c1 | 6.22 |
| CC/C(=C(/CC)c1ccc(O)cc1)c1ccc(O)cc1 | 5.37 |
| CCOP(=O)(NC(C)C)Oc1ccc(SC)c(C)c1 (centres undefined) | 8.11 |
| CCCS | 6.1 |
| COCC(C)OC(C)=O (centres undefined) | 2.51 |
| ClCCOCCCl | 2.78 |
| CCOc1ccc2c(c1)C(C)=CC(C)(C)N2 | 5.04 |
| CN=C=S | 5.42 |

| Structure (SMILES) | 48 h LC50 (-log10 mol/L) |
| --- | --- |
| CN1C(=O)CN=C(c2ccccc2)c2cc(Cl)ccc21 | 4.82 |
| CCCCC | 3.87 |
| Cc1cc(C)cc(OCC2CNC(=O)O2)c1 (centres undefined) | 3.47 |
| CC(C)(Oc1ccc(Cl)cc1)C(=O)O | 3.47 |
| Cn1cc(-c2ccccc2)c(=O)c(-c2cccc(C(F)(F)F)c2)c1 | 4.9 |
| C/C=C(\C)C(=O)O[C@H]1C[C@@H](OC(C)=O)[C@@]2(C(=O)OC)CO[C@H]3[C@@H](O)[C@@](C)([C@]45O[C@@]4(C)[C@H]4C[C@@H]5O[C@@H]5OC=C[C@@]54O)[C@H]4[C@]1(CO[C@]4(O)C(=O)OC)[C@@H]32 | 6.06 |
| CC(=O)CC(c1ccccc1)c1c(O)c2ccccc2oc1=O (centres undefined) | 2.96 |
| Fc1ccc([C@@H]2CCNC[C@H]2COc2ccc3c(c2)OCO3)cc1 | 5.75 |
| O=C1CN=C(c2ccccc2Cl)c2cc([N+](=O)[O-])ccc2N1 | 4.02 |
| O=C1CNC(=S)N1 | 3.77 |
| CCC(Cl)Cl | 3.63 |
| c1ccc2c(c1)Cc1ccccc1O2 | 3.95 |
| CCCCC(CC)COC(=O)CCCCC(=O)OCC(CC)CCCC (centres undefined) | 5.75 |
| COc1c(C(C)(C)C)cc([N+](=O)[O-])c(C)c1[N+](=O)[O-] | 5.64 |
| CC[C@H]1OC(=O)[C@H](C)[C@@H](O[C@H]2C[C@@](C)(OC)[C@@H](O)[C@H](C)O2)[C@H](C)[C@@H](O[C@@H]2O[C@H](C)C[C@H](N(C)C)[C@H]2O)[C@](C)(O)C[C@@H](C)C(=O)[C@H](C)[C@@H](O)[C@]1(C)O | 3.28 |
| Cc1cn([C@H]2C=C[C@@H](CO)O2)c(=O)[nH]c1=O | 2.36 |
| NC(=O)N1c2ccccc2C=Cc2ccccc21 | 4.23 |
| CC(c1ccc(Cl)cc1)c1ccc(Cl)cc1 | 6.86 |
| CC(C)(C)NC(=O)[C@H]1CC[C@H]2[C@@H]3CC[C@H]4NC(=O)C=C[C@]4(C)[C@H]3CC[C@]12C | 4.25 |
| S=P(N1CC1)(N1CC1)N1CC1 | 2.54 |
| CC(C)OC(=O)Nc1cccc(Cl)c1 | 4.76 |
| CCNc1nc(NCC)nc(SC)n1 | 3.63 |

| Structure (SMILES) | 48 h LC50 (-log10 mol/L) |
| --- | --- |
| CCNC(=S)NCC | 2.84 |
| C1CCNCC1 | 3.93 |
| c1ccc2c(c1)sc1ccccc12 | 5.6 |
| CC(F)(Cl)Cl | 3.58 |
| O=S1c2ccccc2-c2ccccc21 | 4 |
| N#CSCSC#N | 6.25 |
| CCCCCCCCCC | 5.3 |
| O=c1cc[nH]c(=S)[nH]1 | 4.22 |
| CCCSc1ccc2nc(NC(=O)OC)[nH]c2c1 | 7.04 |
| Cc1cc(C)c(C)cc1C | 5.45 |
| CC(C)NCC(O)c1ccc(NS(C)(=O)=O)cc1 (centres undefined) | 2.96 |
| Clc1ccc(-c2ccc(Cl)c(Cl)c2Cl)c(Cl)c1Cl | 8.78 |
| Cc1c(COC(=O)[C@@H]2[C@H](/C=C(\Cl)C(F)(F)F)C2(C)C)cccc1-c1ccccc1 | 8.11 |
| Cc1cc(Cl)cc(Cl)c1O | 5.63 |
| Brc1ccc(Oc2cc(Br)c(Br)cc2Br)c(Br)c1 | 7.02 |
| COC1=CC(=O)C[C@@H](C)[C@]12Oc1c(Cl)c(OC)cc(OC)c1C2=O | 2.51 |
| CN(C)c1nc(=O)n(C2CCCCC2)c(=O)n1C | 3.22 |
| CC(C)(C)CC(C)(C)c1ccc(O)cc1 | 6.36 |
| CC1=CCC2CC1C2(C)C (centres undefined) | 3.52 |
| Clc1ccc(Cl)c(-c2cc(Cl)c(Cl)cc2Cl)c1 | 7.51 |
| CN(C)[C@@H]1C(=O)C(C(N)=O)=C(O)[C@@]2(O)C(=O)C3=C(O)c4c(O)cccc4[C@@](C)(O)[C@H]3C[C@@H]12 | 6.43 |
| CC(OC(=O)c1cc(Oc2ccc(C(F)(F)F)cc2Cl)ccc1[N+](=O)[O-])C(=O)O (centres undefined) | 4.5 |

| Structure (SMILES) | 48 h LC50 (-log10 mol/L) |
| --- | --- |
| CC(C)(C)[C@H](O)[C@H](Cc1ccc(Cl)cc1)n1cncn1 | 4.01 |
| COC(=O)C1=C(C)NC(C)=C(C(=O)OCC(C)C)C1c1ccccc1[N+](=O)[O-] (centres undefined) | 4.07 |
| c1ccc2c(c1)ccc1oc3ccccc3c12 | 4.74 |
| BrC1CCCCC1 | 3.89 |
| CCCC1O[C@@H]2C[C@H]3[C@@H]4CCC5=CC(=O)C=C[C@]5(C)[C@H]4[C@@H](O)C[C@]3(C)[C@]2(C(=O)CO)O1 (some centres undefined) | 4.33 |
| CCN(CC)C(=O)SCc1ccc(Cl)cc1 | 5.55 |
| CC(C)C(=O)Nc1ccc([N+](=O)[O-])c(C(F)(F)F)c1 | 5.3 |
| COc1c(Cl)c(Cl)c(Cl)c(Cl)c1Cl | 7.01 |
| NC(N)=Nc1nc(CSCC/C(N)=N/S(N)(=O)=O)cs1 | 2.93 |
| O=C(NC(=O)c1c(F)cccc1F)Nc1ccc(Cl)cc1 | 7.8 |
| COc1ccc2nc(S(=O)Cc3ncc(C)c(OC)c3C)[nH]c2c1 (centres undefined) | 3.59 |
| CN(C)C(=S)SSC(=S)N(C)C | 6.06 |
| O=NN(c1ccccc1)c1ccccc1 | 4.4 |
| C=C[C@]1(C)C[C@@H](OC(=O)CSC2C[C@H]3CC[C@@H](C2)N3C)[C@]2(C)[C@H](C)CC[C@]3(CCC(=O)[C@H]32)[C@@H](C)[C@@H]1O (some centres undefined) | 4.11 |
| c1ccc2cnccc2c1 | 3.71 |
| NC[C@@H]1O[C@H](O[C@H]2[C@@H](O)[C@H](O[C@@H]3[C@@H](O)[C@H](N)C[C@H](N)[C@H]3O[C@H]3O[C@H](CO)[C@@H](O)[C@H](O)[C@H]3N)O[C@@H]2CO)[C@H](N)[C@@H](O)[C@@H]1O | 3.09 |
| O=c1ccc2ccccc2o1 | 4.03 |
| CN(C)[C@@H]1C(=O)C(C(N)=O)=C(O)[C@@]2(O)C(=O)C3=C(O)c4c(O)ccc(Cl)c4[C@@](C)(O)[C@H]3C[C@@H]12 | 3.57 |
| CCc1nc(N)nc(N)c1-c1ccc(Cl)cc1 | 4.63 |
| C[C@]12CC[C@H]3[C@@H](CCC4=CC(=O)CC[C@@]43C)[C@@H]1CC[C@@H]2O | 5.17 |
| c1ccc(NNc2ccccc2)cc1 | 4.65 |
| Nc1cccc(Cl)c1 | 6.11 |

| Structure (SMILES) | 48 h LC50 (-log10 mol/L) |
| --- | --- |
| O=S1OC[C@@H]2[C@H](CO1)[C@]1(Cl)C(Cl)=C(Cl)[C@@]2(Cl)C1(Cl)Cl (some centres undefined) | 6.08 |
| CC(C)N(C(=O)SCC(Cl)=C(Cl)Cl)C(C)C | 6.46 |
| CC1(C)C(C=C(Cl)Cl)C1C(=O)OCc1cccc(Oc2ccccc2)c1 (centres undefined) | 8.07 |
| C1=CCCCC1 | 3.94 |
| Nc1nc(=S)c2[nH]cnc2[nH]1 | 4.01 |
| ClCC1CO1 (centres undefined) | 3.59 |
| Cc1nc2n(c(=O)c1CCN1CCC(c3noc4cc(F)ccc34)CC1)CCCC2 | 4.83 |
| FC(F)C(F)(F)OCC(Cn1cncn1)c1ccc(Cl)cc1Cl (centres undefined) | 4.71 |
| O=CCCCC=O | 3.79 |
| CSc1nc(N)nc(NC(C)(C)C)n1 | 4.29 |
| CCOc1cc(NC(C)=O)ccc1C(=O)OC | 3.07 |
| CC(C)(C)NC(=O)[C@@H]1C[C@@H]2CCCC[C@@H]2CN1C[C@@H](O)[C@H](Cc1ccccc1)NC(=O)[C@H](CC(N)=O)NC(=O)c1ccc2ccccc2n1 | 4.27 |
| CN1CSC(=S)N(C)C1 | 5.47 |
| Fc1ccc([C@@]2(Cn3cncn3)O[C@@H]2c2ccccc2Cl)cc1 | 4.58 |
| Cc1ncc2n1-c1ccc(Cl)cc1C(c1ccccc1F)=NC2 | 6.21 |
| C1CCCC1 | 3.81 |
| CC[C@H]1OC(=O)[C@H](C)[C@@H](O[C@H]2C[C@@](C)(OC)[C@@H](O)[C@H](C)O2)[C@H](C)[C@@H](O[C@@H]2O[C@H](C)C[C@H](N(C)C)[C@H]2O)[C@](C)(OC)C[C@@H](C)C(=O)[C@H](C)[C@@H](O)[C@]1(C)O | 4.6 |
| CC(C)CCCCCCCCCCNCCCCCCCCCCC(C)C | 6.54 |
| CCCC1COC(Cn2cncn2)(c2ccc(Cl)cc2Cl)O1 (centres undefined) | 4.72 |
| CC(C)NCC(O)COc1ccc(CC(N)=O)cc1 (centres undefined) | 3.9 |
| CNC(=O)Oc1cccc2c1OC(C)(C)O2 | 6.88 |
